Data as given in patent publication US12478693B2, “Compositions and methods for detection of traumatic brain injury” (Amydis, Inc., priority 2018, dated 2025).
“Also recorded” adds a separate entry of the source.

Columns and labels:
Assay type in all cases: binding
[1] = system: amyloid beta in retinal tissue; assay: Staining of retinal tissue of TBI blast mouse model; details: for fluorescent labelling of retinal Aβ deposits: blast mouse model, 24 hours after injury; for fluorescent labelling of retinal tissue: non-injured (normal) mouse
Procedure: This example was conducted to determine whether the ASF Compound 1 could detect AR in the retina of a TBI mouse model after injury.
Retinal tissue of a blast mouse model 24 hours after injury and a non-injured mouse were stained with the ASF and co-stained with an […] (6E10).

[2] = system: amyloid beta in brain tissue; assay: Staining of brain tissue of TBI blast mouse model
Text: Based on this evidence, this example further attempted to confirm that […] was also detected in the brain tissue of the same TBI blast mouse model. […] The evidence of Aβ in the brain tissue complements what was found in the retinal tissue of the same injured mouse. It also supports previous studies of the correlation between the brain and retina in the accumulation of Aβ.

[3] = system: aggregated proteins in retina; assay: Retina staining after controlled cortical impact (Example 3); details: 3 month old C5BL/6 mice, 24 h after CCI
Text: 3 month old C5BL/6 mice were briefly anesthetized with isoflurane and placed in a stereotaxic frame. Mice were subjected to craniotomy over the right primary and secondary motor cortex and parietal-temporal cortex (+1 to −4 anterior-posterior from the bregma, 4 mm laterally from the sagittal suture). Half of the mice were not further injured to use as control specimen. For the remaining mice a 3 mm diameter piston was centered over the motor cortex approximately +0.5 to −2.5 mm from the bregma and 3 mm lateral to the sagittal suture. Using a stereotaxic impactor (Impact One, myNeuroLab.com), the piston was accelerated at a speed of 3 m/sec to an impact depth of 1 mm below the cortical surface. After 24 h, mice were euthanized and brain and eyes were collected. Retinas were extracted, stained with DAPI, Compound 1, and 6E10 antibody, and compared.
Retinas were mounted on slides and washed with phosphate-buffered saline (PBS) two times for five minutes each time. Retinas were exposed to 98% formic acid for one minute then washed two times with distilled water for five minutes each time. The retinas were then equilibrated in 1×PBS for 15 minutes. Retinas were exposed to 10% goat/donkey serum in 1× phosphate-buffered saline with Tween® 20 (PBST) for 1 h. Retinas were then incubated with […] in 10% goat serum in 1×PBST at 4° C. overnight. […]

Aβ deposits in retina = molecular target: T1, Aβ deposits in retina (Mus musculus, UniProt P12023); assay: Ex vivo detection of retinal Aβ aggregation in CCI mouse model (Example 4)
T1 construct: denotes peptides of about 36 to 43 amino acids; from tissue; host or cells: mouse retina dissected 24 h after CCI
T1 sequence (P12023 672-713 limits assumed): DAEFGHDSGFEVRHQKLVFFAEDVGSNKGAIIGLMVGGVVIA
Procedure: Mice were subjected to a controlled cortical impact (CCI). The CCI model applies a controlled impact to the intact dura after a craniotomy and is a commonly used TBI animal model. Mice were anesthetized, the head was mounted in a stereotaxic frame, and a craniotomy was performed over the right side of the frontal cortex. Using a stereotaxic impactor, mice received an impact on the right side of the frontal cortex using a 3 m/s velocity, 1 mm depth, and 3 mm diameter piston. After injury, the incision was closed with staples, anesthesia was terminated, and the animal was placed in a heated cage to maintain normal core temperature.
Sham injury consisted of exposure to anesthesia, stereotaxic mounting, skin and fascia reflection, and closing of incision with staples. Mice were then euthanized 24 hours after injury and retinal tissue were dissected for further analysis.
Retina from mice were extracted and stained with Compound 1 along with a 6E10 antibody, a sequence specific antibody for Aβ.
Mice were subjected to a controlled cortical impact (CCI). The CCI model applies a controlled impact to the intact dura after a craniotomy and is a commonly used TBI animal model. Mice were anesthetized, the head was mounted in a stereotaxic frame, and a craniotomy was performed over the right side of the frontal cortex. […]

[4] = system: amyloid-beta (Aβ) deposits in human retinal tissue; assay: Ex vivo fluorescence staining of post-mortem human retina with ASF probe; details: AD and cognitively normal patients, listed as ASF
Procedure: Post-mortem retinal tissue and brains of humans with confirmed or probable Alzheimer's disease (AD) were obtained and examined by staining amyloid-beta (A3) with a test amyloid sensitive fluorescent probe (ASF), Compound 1. This example was conducted to determine if the ASF could identify patients with amyloid burden in the brain through fluorescence inspection of retinas stained with the ASF.
While this example could observe these deposits in both AD (panels A-B) and cognitively normal patients (panels C-D), there is a qualitative correlation between the density of these deposits in the retina and the degree of amyloidosis in the brain (as estimated by immunohistochemistry (IHC) with anti-Aβ antibodies).
IHC staining of retinal cryosections provided further evidence for the existence of Aβ in retinal deposits with similar location, size, and morphology as the deposits found in retinal flat mounts stained with the ASF.

## COCCOCCOCCNC(=O)/C(C#N)=C/c1ccc2cc(N3CCCCC3)ccc2c1 [Compound 1, (E)-2-cyano-N-(2-(2-(2-methoxyethoxy)ethoxy)ethyl)-3-(6-(piperidin-1l-yl)naphthalen-2-yl)acrylamide]
[1]
  fluorescent labelling of retinal Aβ deposits: fluoresces amyloid beta in retinal tissue of TBI blast mouse model; also recorded: has the ability to detect retinal amyloids present in a TBI mouse model
  fluorescent labelling of retinal tissue: No visible fluorescence in normal mouse
[1]; listed as ASF
  fluorescent labelling of retinal Aβ deposits: fluorescently labels these retinal deposits
  fluorescent labelling of retinal tissue: does not display any fluorescent enhancement
[2]; TBI blast mouse model
  fluorescent labelling of amyloid beta in brain tissue: fluoresces amyloid beta in brain tissue of TBI blast mouse model
[2]; normal mouse
  fluorescent labelling of brain tissue: No visible fluorescence in normal mouse
[3]
  detection of deposited aggregated proteins in retina: detected; also recorded: colocalized
Aβ deposits in retina; mice that received a CCI, 24 hours after injury, retina ex vivo
  fluorescent labelling of retinal Aβ deposits: fluorescently labeled these deposits and co-localized with 6E10 immunoreactivity
Aβ deposits in retina; uninjured (sham) mouse
  fluorescence enhancement in retina: did not display any fluorescence enhancement
[4]
  fluorescent visualization / binding of amyloid deposits in flat mounted retina: dense deposits that were 5-10 μm in diameter could be fluorescently visualized; also recorded: capable of binding to amyloid deposits in ex vivo human retinal tissue
